How the values were obtained:
[1] = system: CA-MRSA 40065; assay: Biocidal activity in bacterial suspension (Example 18); assay type: cell-based, Staphylococcus aureus; settings: Table 2, 15 ppm [Cl+], inoculum 1.57-1.75 × 10^6 CFU/mL
Method: Logarithmic-phase cultures of MRSA were prepared using similar way except TSA broth was used instead.
(§1) Biocidal activity of synthetic compounds was completed as followed. To 20 mL of bacterial suspension (10^5 or 10^6 cfu/mL) in a centrifuge tube was added 30 μL solution of synthetic compounds (0.282 M stock solution) to achieve a final [Cl^+] of 15 ppm. Timing of the exposure to the disinfectant was started immediately with the addition of the synthetic compound. After predetermined contact time, 1.0 mL aliquots were withdrawn and added to an equal volume of 0.02 N sodium thiosulfate in PBS (0.1 M, pH 7.4). The quenched suspension was serially diluted and 100 μL of each resulting dilution was placed onto nutrient agar plates. After being incubated at 37° C. for 24 hours, the viable bacterial colonies on the plates were counted. Bacterial reduction was reported according to:
(§2) Percentage reduction of bacteria (%)=(A−B)/A×100
(§3) Log reduction=Log(A/B) (4)
(§4) where A is the number of bacteria in the starting inoculum (cfu/mL), and B is the number of bacteria retrieved from synthetic compounds (cfu/mL).

[2] = system: MDR-E. coli (#70094); assay: Biocidal activity in bacterial suspension (Example 17); assay type: cell-based, Escherichia coli; settings: 15 ppm [Cl+]
Method: (§5) In the model study we investigated the bactericidal performance of small molecules 2 and 43 against three strains for each bacterium at the concentration of 15 ppm.
(§6) Tryptone Soya Agar (TSA) was used for bacterial culture. After sub-cultured from stocks, bacteria were allowed to grow at 37° C. for 18-20 hours to obtain logarithmic-phase cultures. Biocidal activity of 2 and 43 were completed as followed. To 20 mL bacterial suspension (10^6-10^7 colony forming units (CFU)/mL) in a centrifuge tube was added 30 μL it 2 or 43 solutions (0.28 M stock solution) respectively to achieve final 15 ppm [Cl^+]). Timing of the exposure to the disinfectant was started immediately with the addition of the synthetic compound 2 or 43. After the contact for 5 min, 10 min, and 20 min respectively, 1.0 mL aliquots were withdrawn and added to an equal volume of 0.02 N sodium thiosulfate in PBS (0.05 M, pH 7.0). The quenched suspension was serially diluted and 100 μL of each resulting dilutions were placed onto nutrient agar plates. The same procedure was also applied to compounds 1 and 42 as controls. After being incubated at 37° C. for 24 hours, viable bacterial colonies on the plates were counted. Bacterial reduction was reported according to the following equation.
as §2
(§7) Where A is the number of bacteria retrieved from controls (CFU/mL), and B is the number of bacteria retrieved from 2 or 43 (CFU/mL).

[3] = system: MDR-E. coli (#95882); assay: as above; assay type: cell-based, Escherichia coli; settings: 15 ppm [Cl+]
Method: as §5, §6, §2, §7

[4] = system: E. coli ATCC 25922; assay: as above; assay type: cell-based, Escherichia coli; settings: 15 ppm [Cl+]
Method: as §5, §6, §2, §7

[5] = system: P. aeruginosa 73104; assay: Biocidal activity in bacterial suspension (Example 18); assay type: cell-based, Pseudomonas aeruginosa; settings: 15 ppm [Cl+]
Method: Logarithmic-phase cultures of P. aeruginosa were prepared by initially suspending several colonies in cation-supplemented Mueller-Hinton broth (Oxoid, Nepean, Ontario, Canada) at a density equivalent to a 0.5 McFarland standard (1×10^8 cfu/mL). This suspension was then diluted 1:100 and 20 μL of the diluted suspension was further diluted in 60 mL of cation-supplemented Mueller-Hinton broth. Following overnight growth at 37° C., suspensions were diluted 1:[…] to get inoculums of approximately 1×10^6 or 1×10^5 cfu/mL.
as §1, §2, §3, §4

[6] = system: MRSA (#70527); assay: Biocidal activity in bacterial suspension (Example 17); assay type: cell-based, Staphylococcus aureus; settings: 15 ppm [Cl+]
Method: as §5, §6, §2, §7

[7] = system: MRSA (#77090); assay: as above; assay type: cell-based, Staphylococcus aureus; settings: 15 ppm [Cl+]
Method: as §5, §6, §2, §7

[8] = system: MRSA ATCC33592; assay: as above; assay type: cell-based, Staphylococcus aureus; settings: 15 ppm [Cl+]
Method: as §5, §6, §2, §7

[9] = Table 3, contact 60 min, inoculum 2.26 × 10^5 CFU/mL
[10] = Table 3, contact 90 min, inoculum 2.26 × 10^5 CFU/mL
[11] = Table 4, contact 3 min, inoculum 2.26-2.98 × 10^5 CFU/mL
[12] = Table 4, contact 5 min, inoculum 2.26-2.98 × 10^5 CFU/mL
[13] = Table 4, contact 10 min, inoculum 2.26-2.98 × 10^5 CFU/mL
[14] = Table 4, contact 20 min, inoculum 2.26-2.98 × 10^5 CFU/mL
[15] = Table 4, contact 30 min, inoculum 2.26-2.98 × 10^5 CFU/mL
[16] = Table 4, contact 45 min, inoculum 2.26-2.98 × 10^5 CFU/mL
[17] = Table 4, contact 60 min, inoculum 2.26-2.98 × 10^5 CFU/mL

## CC1(C)C(=O)N(CCC[N+](C)(C)C)C(=O)N1Cl [Compound 2]
[1]; contact 3 min
  Bacteria reduction %: 92.8%
  Bacteria reduction Log10: 1.14 Log10
[1]; contact 5 min
  Bacteria reduction %: 93.8%
  Bacteria reduction Log10: 1.20 Log10
[1]; contact 10 min
  Bacteria reduction %: 90.3%
  Bacteria reduction Log10: 1.01 Log10
[1]; contact 60 min
  Bacteria reduction %: 99.6%
  Bacteria reduction Log10: 2.36 Log10
[2]; contact 5 min
  Bacteria reduction %: 100%
  Bacteria reduction Log10: 6.17 Log10
[2]; contact 10 min
  Bacteria reduction %: 100%
  Bacteria reduction Log10: 6.17 Log10
[2]; contact 20 min
  Bacteria reduction %: 100%
  Bacteria reduction Log10: 6.17 Log10
[3]; contact 5 min
  Bacteria reduction %: 100%
  Bacteria reduction Log10: 6.67 Log10
[3]; contact 10 min
  Bacteria reduction %: 100%
  Bacteria reduction Log10: 6.67 Log10
[3]; contact 20 min
  Bacteria reduction %: 100%
  Bacteria reduction Log10: 6.67 Log10
[4]; contact 5 min
  Bacteria reduction Log10: 6.63 Log10
[4]; contact 5 min, inoculum 1.46-5.87 × 10^6 CFU/mL
  Bacteria reduction %: 100%
[4]; contact 10 min
  Bacteria reduction %: 100%
  Bacteria reduction Log10: 6.63 Log10
[4]; contact 20 min
  Bacteria reduction %: 100%
  Bacteria reduction Log10: 6.63 Log10
[5]; 10^6 cfu/mL P. aeruginosa, within 60 min of contact
  Reduction of P. aeruginosa: cannot bring any significant reduction
[5]; Table 3, contact 3 min, inoculum 2.26 × 10^5 CFU/mL
  Bacteria reduction %: 37.6 ± 1.9%
[5]; Table 3, contact 5 min, inoculum 2.26 × 10^5 CFU/mL
  Bacteria reduction %: 26.6 ± 12.5%
[5]; Table 3, contact 10 min, inoculum 2.26 × 10^5 CFU/mL
  Bacteria reduction Log10: 0.41 ± 0.02 Log10
[5]; [9]
  Bacteria reduction %: 100%
  Bacteria reduction Log10: 5.35 Log10
[5]; [10]
  Bacteria reduction %: 100%
  Bacteria reduction Log10: 5.35 Log10
[5]; [11]
  Bacteria reduction %: 37.6%
  Bacteria reduction Log: 0.2 Log
[5]; [12]
  Bacteria reduction %: 26.6%
  Bacteria reduction Log: 0.14 Log
[5]; [13]
  Bacteria reduction %: 61.5%
  Bacteria reduction Log: 0.41 Log
[5]; [14]
  Bacteria reduction %: 99.65%
  Bacteria reduction Log: 2.46 Log
[5]; [15]
  Bacteria reduction %: 99.99%
  Bacteria reduction Log: 4.02 Log
[5]; [16]
  Bacteria reduction %: 99.99%
  Bacteria reduction Log: 4.67 Log
[5]; [17]
  Bacteria reduction %: 100%
  Bacteria reduction Log: 5.47 Log
[6]; contact 5 min
  Bacteria reduction %: 100%
  Bacteria reduction Log10: 6.76 Log10
[6]; contact 10 min
  Bacteria reduction %: 100%
  Bacteria reduction Log10: 6.76 Log10
[6]; contact 20 min
  Bacteria reduction %: 100%
  Bacteria reduction Log10: 6.76 Log10
[7]; contact 5 min
  Bacteria reduction %: 100%
  Bacteria reduction Log10: 6.16 Log10
[7]; contact 10 min
  Bacteria reduction %: 100%
  Bacteria reduction Log10: 6.16 Log10
[7]; contact 20 min
  Bacteria reduction %: 100%
  Bacteria reduction Log10: 6.16 Log10
[8]; contact 5 min
  Bacteria reduction %: 100%
  Bacteria reduction Log10: 6.60 Log10
[8]; contact 10 min
  Bacteria reduction %: 100%
  Bacteria reduction Log10: 6.60 Log10
[8]; contact 20 min
  Bacteria reduction %: 100%
  Bacteria reduction Log10: 6.60 Log10
